According to US20030212088A1, “Methods and compositions for treating, preventing or delaying onset of a neoplasm” (priority 2002, published 2003):
Where a name gives a salt, the structure may show the parent alone.

Tested on: Mouse serum IGF-1
Experiment: Serum IGF-I radioimmunoassay in CT-26 tumor-bearing mice
Format: in vivo, BALB/c mice
Conditions: serum collected at sacrifice (day 24); Pegvisomant 5.0 mg/day s.c.; Irinotecan 100 mg/kg on post-inoculation days 7, 14, 21
Experimental: CT-26 cells (mouse colon carcinoma) are grown in DMEM with 10% fetal bovine serum until the cells are approximately 50% confluent. Trypsin is used to lift adherent cells from the surface of tissue culture flask. The cells are then washed and suspended in Hank's buffered saline solution. BALB/c mice (Jackson Laboratories, Bar Harbor, Me.), 5-8 weeks of age, are used in this example. Initially, the spleen is mobilized using a left flank incision. Direct splenic injections of CT-26 cells is performed (1×10^4 viable cells, 0.05 ml total volume). Wound clips are used to close the incision. This is a syngenic colon cancer model so the host animals are not immunocompromised.
Injections are administered on the flank opposite the side of the wound clips from the splenic injection using a 25-gauge needle on a tuberculin syringe.
Mice are sacrificed on day 24. […] Treatment groups are compared using a standard t-test.
Mouse serum IGF-1 is measured by radioimmunoassay (RIA) after acid-ethanol extraction. Briefly, the serum/extraction mixture is incubated at room temperature for 2 hours, centrifuged, and the supernatant is diluted 1:200 for analysis. IGF-I concentrations are the measured by RIA using a polyclonal rabbit antibody (Nicohls Institute, San Juan Capistrano, Calif.). The assay standards are created with recombinant human IGF-I (Amersham International, Bucks, UK).

| Compound | serum IGF-I concentration (mean ± standard error) [µg/L] |
| --- | --- |
| CCc1c2c(nc3ccc(OC(=O)N4CCC(N5CCCCC5)CC4)cc13)-c1cc3c(c(=O)n1C2)COC(=O)[C@]3(O)CC [Irinotecan, (4S)-4,11-diethyl-4-hydroxy-9-((4-piperidinopiperidino)carbonyloxy)-1H-pyrano (3′,4′:6,7)indolizino(1,2-b)quinoline-3,14(4H,12H) dione hydrochloride] | 129 ± 5.9 |
| Pegvisomant | 50 ± 5.3 |
